According to patent US10725043B2, “Three-dimensional fibroblast aggregate and in vitro 3D skin dermis model comprising same” (S-BIOMEDICS, priority 2015, dated 2020):

Key:
MMP1 [1] = experiment: MMP1 secretion (ELISA) in 3D fibroblast cluster treated with MMP inhibitors; type: cell-based, human; settings: retinoic acid 10 mM, abietic acid 100 mM, TGF-b1 5 ng/ml, cultured 2 and 4 days, FIG. 16
Method: To prepare an in vitro 3D artificial dermis model, fibroblasts were first cultured. In detail, human dermal fibroblasts were cultured in high glucose Dulbecco's modified Eagle's medium (DMEM, Welgene, Daegu, South Korea) by using a tissue culture flask under conditions of 37° C., 5% CO2, and 95% O2 atmosphere. Human dermal fibroblasts of 5 passages were used for all experiments.
The fibroblasts were seeded onto the culture container, thereby preparing a 3D fibroblast cluster. In detail, fibroblasts were seeded onto the 96-well NTCP containing fibroblast growth medium (FGM, Lonza) at a concentration of 1.25×10^5 cells/cm^2 per well, and cultured at a temperature of 37° C. The fibroblasts were cultured in a 2D manner on a surface of the culture container, and separated from the surface. Such separated or delocalized 2D fibroblast cluster was then continuously cultured while floating in the culture container, and within 24 hours, a 3D fibroblast cluster was formed spontaneously. The formed 3D fibroblast cluster was collected on the 1st day (Day 1), 3rd day (Day 3), and 5th day (Day 5) of the culture. […] Hereinafter, the 3D fibroblast cluster was represented by ‘3DCM’.
In detail, the 3D fibroblast cluster of the culture at Day 1 prepared according to Example 2(1) was inoculated with retinoic acid (10 mM), abietic acid (100 mM), transforming growth factor-b1 (TGF-b1) (5 ng/ml) that were diluted in a […] (FGM, Lonza Company). The inoculated 3D fibroblast cluster was then cultured in a stationary incubator at a temperature of 37° C. for 2 and 4 days, separately. The culture broth was recovered therefrom, and was subjected to measurement of secretion of MMP1. Through the measurement, the culture broth was quantified by using the ELISA kit (R&D Company), wherein a method of using the kit was proceeded according to the supplier's protocol.

MMP1 [2] = experiment: MMP1 secretion (ELISA) in two-dimensionally cultured, UVB-irradiated fibroblasts treated with MMP inhibitors; type: cell-based, human; settings: for secreted amount of MMP1 relative to the control group: 2D fibroblasts, UVB 20 mJ/cm^2, 2 days, FIG. 17; for decrease of MMP1 in 2D cells in comparison with the 3D cell cluster: 2D UVB fibroblasts versus 3D cell cluster
Method: As a control group for the 3D fibroblast cluster and for the comparison of the inhibitory effect of MMP inhibitors using the two-dimensionally cultured fibroblasts, fibroblasts irradiated with ultraviolet B (UVB) were used. In detail, fibroblasts that were suspended in high-concentration glucose DMEM were seeded onto each well of a tissue culture treated 6-well plate at a concentration of 2.5×10^5 cells/cm^2, and then, cultured in a stationary incubator at a temperature of 37° C. for 1 day. Next, a washing process was performed thereon three times by using PBS, a serum-free MEM medium was added thereto, and the fibroblasts were cultured in a stationary incubator at a temperature of 37° C. for 1 hour. After a washing process was performed thereon three times by using PBS, to induce overexpression of MMP1, UVB (20 mJ/cm^2) was irradiated thereto. Following UV irradiation, the resulting fibroblasts were inoculated with various concentrations of retinoic acid (2, 10, 40 mM), abietic acid (20, 100, 400 mM), and TGF-b1 (1, 5, 20, ng/ml) that were diluted in a fibroblast growth medium (FGM, Lonza Company). The inoculated fibroblasts were then additionally cultured in a stationary incubator at a temperature of 37° C. for 2 days. The culture broth was recovered therefrom, and was subjected to measurement of secretion of MMP1. Through the measurement, the culture broth was quantified by using the ELISA kit (R&D Company), wherein a method of using the kit was proceeded according to the supplier's protocol.

[3] = retinoic acid 2, 10, TGF-b1 1, 5, 20 ng/ml

| Molecule | secretion levels of MMP1 relative to the control group (MMP1 [1]) | secreted amount of MMP1 relative to the control group (MMP1 [2]; abietic acid 20 mM) | secreted amount of MMP1 relative to the control group (MMP1 [2]; abietic acid at least 100 mM) | decrease of MMP1 in 2D cells in comparison with the 3D cell cluster (MMP1 [2]) | secreted amount of MMP1 relative to the control group (MMP1 [2]; [3]) |
| --- | --- | --- | --- | --- | --- |
| CC(C)C1=CC2=CC[C@@H]3[C@](C)(CCC[C@@]3(C)C(=O)O)[C@H]2CC1 [abietic acid] | ~81% | approximately reduced to half | about 2% |  |  |
| transforming growth factor-b1 [TGF-b1] | about 60% |  |  | 1.7 to 2.4 times | 25-35% |
| CC1=C(/C=C/C(C)=C/C=C/C(C)=C/C(=O)O)C(C)(C)CCC1 [retinoic acid] | about 80% |  |  | about 2.7 times | about 30% |
